Assay results taken from ChEMBL document CHEMBL1201862, “PubChem BioAssay data set” (2004).
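48-hour exposure; five concentrations; linearly interpolated endpoints. At the GI50, growth is halved.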 The source made the active and inactive calls. No stated cut-off is given here; in the data, active = GI50 up to about 1.1 µM and inactive = higher. Peptide text beside a SMILES is read from it. * marks the point of attachment. Boc = CC(C)(C)OC(=O)*; OtBu = CC(C)(C)O*

Assays:
Test in all cases: DTP human tumour cell line panel, 48 h
786-0 = system: 786-0
A549 = system: A549
ACHN = system: ACHN
BT-549 = system: BT-549
CAKI-1 = system: CAKI-1
CCRF-CEM = system: CCRF-CEM
COLO 205 = system: COLO 205
DU-145 = system: DU-145
EKVX = system: EKVX
HCC 2998 = system: HCC 2998
HCT-116 = system: HCT-116
HCT-15 = system: HCT-15
HL-60 = system: HL-60
HOP-62 = system: HOP-62
HOP-92 = system: HOP-92
HT-29 = system: HT-29
Hs-578T = system: Hs-578T
IGROV-1 = system: IGROV-1
K562 = system: K562
KM12 = system: KM12
LOX IMVI = system: LOX IMVI
M14 = system: M14
MCF7 = system: MCF7
MDA-MB-231 = system: MDA-MB-231
MDA-MB-435 = system: MDA-MB-435
MDA-N = system: MDA-N
MOLT-4 = system: MOLT-4
Malme-3M = system: Malme-3M
NCI-H226 = system: NCI-H226
NCI-H23 = system: NCI-H23
NCI-H460 = system: NCI-H460
NCI-H522 = system: NCI-H522
NCI/ADR-RES = system: NCI/ADR-RES
OVCAR-4 = system: OVCAR-4
OVCAR-8 = system: OVCAR-8
PC-3 = system: PC-3
RPMI-8226 = system: RPMI-8226
RXF 393 = system: RXF 393
SF-268 = system: SF-268
SF-295 = system: SF-295
SF-539 = system: SF-539
SK-MEL-28 = system: SK-MEL-28
SK-MEL-5 = system: SK-MEL-5
SK-OV-3 = system: SK-OV-3
SN12C = system: SN12C
SNB-19 = system: SNB-19
SNB-75 = system: SNB-75
SR = system: SR
SW-620 = system: SW-620
T47D = system: T47D
TK-10 = system: TK-10
UACC-257 = system: UACC-257
UACC-62 = system: UACC-62
UO-31 = system: UO-31
A498 = system: A498
OVCAR-3 = system: OVCAR-3
OVCAR-5 = system: OVCAR-5
SK-MEL-2 = system: SK-MEL-2
U-251 = system: U-251

CSC1NNC2(C(=O)N1)c1ccccc1-c1ccccc12 (stereo unspecified)
GI50 (786-0): > 10 µM (inactive) | GI50 (A549): > 10 µM (inactive) | GI50 (ACHN): > 10 µM (inactive) | GI50 (BT-549): > 10 µM (inactive) | GI50 (CAKI-1): > 10 µM (inactive) | GI50 (CCRF-CEM): > 10 µM (inactive) | GI50 (COLO 205): > 10 µM (inactive) | GI50 (DU-145): > 10 µM (inactive) | GI50 (EKVX): 8.32 µM (inactive) | GI50 (HCC 2998): > 10 µM (inactive) | GI50 (HCT-116): > 10 µM (inactive) | GI50 (HCT-15): > 10 µM | GI50 (HL-60): > 10 µM (inactive) | GI50 (HOP-62): > 10 µM (inactive) | GI50 (HOP-92): > 10 µM (inactive) | GI50 (HT-29): > 10 µM (inactive) | GI50 (Hs-578T): > 10 µM (inactive) | GI50 (IGROV-1): > 10 µM (inactive) | GI50 (K562): > 10 µM (inactive) | GI50 (KM12): > 10 µM (inactive) | GI50 (LOX IMVI): > 10 µM (inactive) | GI50 (M14): > 10 µM (inactive) | GI50 (MCF7): > 10 µM (inactive) | GI50 (MDA-MB-231): > 10 µM (inactive) | GI50 (MDA-MB-435): > 10 µM (inactive) | GI50 (MDA-N): > 10 µM (inactive) | GI50 (MOLT-4): > 10 µM (inactive) | GI50 (Malme-3M): > 10 µM (inactive) | GI50 (NCI-H226): > 10 µM (inactive) | GI50 (NCI-H23): > 10 µM (inactive) | GI50 (NCI-H460): > 10 µM (inactive) | GI50 (NCI-H522): > 10 µM (inactive) | GI50 (NCI/ADR-RES): > 10 µM (inactive) | GI50 (OVCAR-4): > 10 µM (inactive) | GI50 (OVCAR-8): > 10 µM (inactive) | GI50 (PC-3): > 10 µM (inactive) | GI50 (RPMI-8226): > 10 µM (inactive) | GI50 (RXF 393): > 10 µM (inactive) | GI50 (SF-268): > 10 µM (inactive) | GI50 (SF-295): > 10 µM (inactive) | GI50 (SF-539): > 10 µM (inactive) | GI50 (SK-MEL-28): > 10 µM (inactive) | GI50 (SK-MEL-5): > 10 µM (inactive) | GI50 (SK-OV-3): > 10 µM (inactive) | GI50 (SN12C): > 10 µM (inactive) | GI50 (SNB-19): > 10 µM (inactive) | GI50 (SNB-75): > 10 µM (inactive) | GI50 (SR): > 10 µM (inactive) | GI50 (SW-620): > 10 µM (inactive) | GI50 (T47D): 5.53 µM (inactive) | GI50 (TK-10): > 10 µM (inactive) | GI50 (UACC-257): > 10 µM (inactive) | GI50 (UACC-62): > 10 µM (inactive) | GI50 (UO-31): > 10 µM (inactive)

COC(=O)[C@]1(c2cc3ccccc3[nH]2)CC2CN(C(=O)OCc3ccccc3)C1CC2=O (stereo partly specified)
GI50 (786-0): 23.8 µM (inactive) | GI50 (A498): 20 µM (inactive) | GI50 (A549): 23.3 µM (inactive) | GI50 (ACHN): 26.6 µM (inactive) | GI50 (BT-549): 29.3 µM (inactive) | GI50 (CAKI-1): 38.5 µM (inactive) | GI50 (CCRF-CEM): 28.2 µM (inactive) | GI50 (COLO 205): 16.5 µM (inactive) | GI50 (DU-145): 38.8 µM (inactive) | GI50 (EKVX): 17.1 µM (inactive) | GI50 (HCC 2998): 35 µM (inactive) | GI50 (HCT-116): 22.8 µM (inactive) | GI50 (HCT-15): 27.5 µM | GI50 (HL-60): 16.4 µM (inactive) | GI50 (HOP-62): 43.2 µM (inactive) | GI50 (HOP-92): 20.4 µM (inactive) | GI50 (HT-29): 15.5 µM (inactive) | GI50 (Hs-578T): 19.4 µM (inactive) | GI50 (IGROV-1): 29.7 µM (inactive) | GI50 (K562): 18.7 µM (inactive) | GI50 (KM12): 26.9 µM (inactive) | GI50 (LOX IMVI): 22.5 µM (inactive) | GI50 (M14): 30.5 µM (inactive) | GI50 (MCF7): 16.7 µM (inactive) | GI50 (MDA-MB-231): 12.8 µM (inactive) | GI50 (MDA-MB-435): 30.1 µM (inactive) | GI50 (MDA-N): 24.8 µM (inactive) | GI50 (MOLT-4): 15 µM (inactive) | GI50 (Malme-3M): 20.7 µM (inactive) | GI50 (NCI-H226): 18.2 µM (inactive) | GI50 (NCI-H23): 29.7 µM (inactive) | GI50 (NCI-H460): 24.4 µM (inactive) | GI50 (NCI-H522): 20.6 µM (inactive) | GI50 (NCI/ADR-RES): 29.3 µM (inactive) | GI50 (OVCAR-3): 28.8 µM (inactive) | GI50 (OVCAR-4): 28.1 µM (inactive) | GI50 (OVCAR-5): 14.1 µM (inactive) | GI50 (OVCAR-8): 26.7 µM (inactive) | GI50 (PC-3): 17.1 µM (inactive) | GI50 (RPMI-8226): 17.5 µM (inactive) | GI50 (RXF 393): 16.2 µM (inactive) | GI50 (SF-268): 27.4 µM (inactive) | GI50 (SF-295): 25.4 µM (inactive) | GI50 (SF-539): 28.3 µM (inactive) | GI50 (SK-MEL-28): 39.3 µM (inactive) | GI50 (SK-MEL-2): 18.2 µM (inactive) | GI50 (SK-MEL-5): 17.1 µM (inactive) | GI50 (SK-OV-3): 33.4 µM (inactive) | GI50 (SN12C): 17.4 µM (inactive) | GI50 (SNB-19): 59.7 µM (inactive) | GI50 (SNB-75): 16.5 µM (inactive) | GI50 (SW-620): 29.6 µM (inactive) | GI50 (T47D): 22.5 µM (inactive) | GI50 (TK-10): 53.5 µM (inactive) | GI50 (U-251): 15.8 µM (inactive) | GI50 (UACC-257): 36.3 µM (inactive) | GI50 (UACC-62): 17.1 µM (inactive) | GI50 (UO-31): 21.3 µM (inactive)

CC(C)(C)OC(=O)CC(NC(=O)OC(C)(C)C)C(=O)NC(Cc1ccccc1)C(N)=O (stereo unspecified) (Boc-Asp(OtBu)-Phe-NH2; configuration not given here)
GI50 (786-0): > 100 µM (inactive) | GI50 (A498): > 100 µM (inactive) | GI50 (A549): > 100 µM (inactive) | GI50 (ACHN): > 100 µM (inactive) | GI50 (BT-549): > 100 µM (inactive) | GI50 (CAKI-1): > 100 µM (inactive) | GI50 (CCRF-CEM): > 100 µM (inactive) | GI50 (COLO 205): > 100 µM (inactive) | GI50 (DU-145): > 100 µM (inactive) | GI50 (EKVX): > 100 µM (inactive) | GI50 (HCT-116): > 100 µM (inactive) | GI50 (HCT-15): > 100 µM | GI50 (HOP-62): > 100 µM (inactive) | GI50 (HOP-92): 19.8 µM (inactive) | GI50 (HT-29): > 100 µM (inactive) | GI50 (Hs-578T): > 100 µM (inactive) | GI50 (IGROV-1): > 100 µM (inactive) | GI50 (K562): > 100 µM (inactive) | GI50 (KM12): > 100 µM (inactive) | GI50 (LOX IMVI): > 100 µM (inactive) | GI50 (M14): > 100 µM (inactive) | GI50 (MCF7): > 100 µM (inactive) | GI50 (MDA-MB-231): > 100 µM (inactive) | GI50 (MDA-MB-435): > 100 µM (inactive) | GI50 (MDA-N): > 100 µM (inactive) | GI50 (Malme-3M): > 100 µM (inactive) | GI50 (NCI-H226): > 100 µM (inactive) | GI50 (NCI-H23): > 100 µM (inactive) | GI50 (NCI-H460): > 100 µM (inactive) | GI50 (NCI-H522): > 100 µM (inactive) | GI50 (NCI/ADR-RES): > 100 µM (inactive) | GI50 (OVCAR-3): > 100 µM (inactive) | GI50 (OVCAR-4): > 100 µM (inactive) | GI50 (OVCAR-5): > 100 µM (inactive) | GI50 (OVCAR-8): > 100 µM (inactive) | GI50 (PC-3): > 100 µM (inactive) | GI50 (RPMI-8226): > 100 µM (inactive) | GI50 (RXF 393): > 100 µM (inactive) | GI50 (SF-268): > 100 µM (inactive) | GI50 (SF-295): > 100 µM (inactive) | GI50 (SF-539): > 100 µM (inactive) | GI50 (SK-MEL-28): > 100 µM (inactive) | GI50 (SK-MEL-2): > 100 µM (inactive) | GI50 (SK-MEL-5): > 100 µM (inactive) | GI50 (SK-OV-3): > 100 µM (inactive) | GI50 (SN12C): > 100 µM (inactive) | GI50 (SNB-19): > 100 µM (inactive) | GI50 (SNB-75): > 100 µM (inactive) | GI50 (SW-620): > 100 µM (inactive) | GI50 (T47D): > 100 µM (inactive) | GI50 (TK-10): > 100 µM (inactive) | GI50 (U-251): > 100 µM (inactive) | GI50 (UACC-257): > 100 µM (inactive) | GI50 (UO-31): > 100 µM (inactive)
